Measured values taken from patent US3984390A, “Novel process for producing phleomycin group antibiotics” (Zaidan Hojin Biseibutsu Kagaku Kenkyu Kai, priority 1972, dated 1976).

Key:
[1] = system: Ehrlich ascites carcinoma; assay: Antitumor activity and toxicity in ICR-SLC mouse inoculated with Ehrlich ascites carcinoma, i.p. for ten consecutive days; assay type: in vivo; conditions: for Chemotherapeutic index: Table 5, ten consecutive days into peritoneal cavity, evaluated 50 days after beginning; for Chemotherapeutic index (LD50/ED50): Tables 2 to 4; for Chemotherapeutic index (LD50/ED50) / LD50 (50 % lethal dose) / ED50 (50 % effective dose): i.p., for 10 days, 72000 min; for LD50 (50 % lethal dose): Behrens-Karber method; for ED50 (50 % effective dose): maximum dose level within the range of longevity ratio of 100 to 200
Description: The phleomycin was administered for ten consecutive days into peritoneal cavity of a ICR-SLC mouse, into which Ehrlich ascites carcinoma had been inoculated. Fifty days after the beginning of the experiment, measurements were made for (1) the number of dead mouse owing to toxicity, (2) the number of survived mouse, (3) mean survival period in 50 days, and (4) the ratio of mean survival period to that of reference mouse multiplied by 100. The chemotherapeutic index was calculated from the values of ED50 (50 % effective dose) and LD50 (50 % lethal dose) which were obtained as given below.
ED50 value: The maximum dose level within the range of logevity ratio of 100 to 200.
LD50 value: Calculated according to Behrens-Karber method from the data of (1) and (2).
^(2) A bleomycin was administered for ten consecutive days into
peritoneal cavity of a ICR-SLC mouse, where Ehrlich ascites carcinoma had
been inoculated, and 50 days after the beginning of experiment the […]

[2] = system: Mycobacterium smegmatis 607; assay: Antimicrobial potency, cylinder agar plate method, Bleomycin A2 (copper-free base) assumed as 1000 U/mg; assay type: cell-based; conditions: for Antimicrobial potency: Mycobacterium smegmatis 607
Description: 1. Antimicrobial potency was assayed by a cylinder agar plate method on the basis of Bleomycin A2 (copper-free base) assumed as 1000 U/mg, using Mycobacterium smegmatis 607 as test organism.
^(1) Assayed by a cylinder-agar plate method using Mycobacterium
smegmatis 607 as test organism, the potency of bleomycin A2
(copper-free base) being assumed as 1000 unit/mg.
The resulting compound has 0.65 of Rf value of the Silica gel thin layer chromatograph (CH3 OH: 10 %-CH3 COONH4 : 10 %-NH4 OH = 10 : 9 : 1) and 0.53 of Rf value of the Avicel thin layer chromatography (n-C3 H7 OH : pyridine : CH3 COOH : H2 O = 15 : 10 : 3 : 12) which are same with those of the 3-morpholinopropylaminobleomycin. The antimicrobial activity to Mycobacterium smegmatis 607 by the cylinder-agar plate method (the standard copper-free bleomycin A2 free base 1,000 U/mg) was 605 U/mg.

[3] = bleomycins of Table 5, bleomycin A2 (copper-free base) = 1000 unit/mg
[4] = phleomycins of Table 1, Bleomycin A2 (copper-free base) = 1000 U/mg
[5] = 0.19 mg/kg/day for 10 days i.p.
[6] = 0.39 mg/kg/day for 10 days i.p.
[7] = 0.78 mg/kg/day for 10 days i.p.
[8] = 1.56 mg/kg/day for 10 days i.p.
[9] = 3.12 mg/kg/day for 10 days i.p.
[10] = 6.25 mg/kg/day for 10 days i.p.
[11] = 12.5 mg/kg/day for 10 days i.p.
[12] = 25.0 mg/kg/day for 10 days i.p.

3-Pyrrolidinopropylaminobleomycin
Chemotherapeutic index [1]: 19.2
Antimicrobial potency [2, 3]: 1066 Unit/mg

3-(3-Morpholinopropylamino)propylaminophleomycin
Antimicrobial potency [2, 4]: 961 unit/mg

3-[3-N-(1-phenylethyl)aminopropylamino]propylaminophleomycin
Antimicrobial potency [2, 4]: 7208 unit/mg

3-N-(3-Hydroxypropyl)aminopropylaminophleomycin
Antimicrobial potency [2, 4]: 845 unit/mg

3-N-Benzylaminopropylaminophleomycin
Antimicrobial potency [2, 4]: 3373 unit/mg

3-N-Methylaminopropylaminophleomycin
Antimicrobial potency [2, 4]: 688 unit/mg

3-(3-N-Cyclohexylaminopropylamino)propylaminobleomycin
Chemotherapeutic index [1]: 39.5
Antimicrobial potency [2, 3]: 12335 Unit/mg

3-Piperazinopropylaminophleomycin
Antimicrobial potency [2, 4]: 581 unit/mg

3-(3-N-Cyclohexylaminopropylamino)propylaminophleomycin
Antimicrobial potency [2, 4]: 8570 unit/mg

3-Morpholinopropylaminobleomycin
Average longevity (mean survival period in 50 days) [1, 5]: 11.8
Longevity ratio (mean survival period to that of reference mouse multiplied by 100) [1, 5]: 97
Toxicity, number dead/total number [1, 5]: 0/5
Viability (after 50 days), number survived/total number [1, 5]: 0/5
Average longevity (mean survival period in 50 days) [1, 6]: 11.8
Longevity ratio (mean survival period to that of reference mouse multiplied by 100) [1, 6]: 97
Toxicity, number dead/total number [1, 6]: 0/5
Viability (after 50 days), number survived/total number [1, 6]: 0/5
Average longevity (mean survival period in 50 days) [1, 7]: 33.0
Longevity ratio (mean survival period to that of reference mouse multiplied by 100) [1, 7]: 270
Toxicity, number dead/total number [1, 7]: 0/5
Viability (after 50 days), number survived/total number [1, 7]: 2/5
Average longevity (mean survival period in 50 days) [1, 8]: 36.6
Longevity ratio (mean survival period to that of reference mouse multiplied by 100) [1, 8]: 300
Toxicity, number dead/total number [1, 8]: 0/5
Viability (after 50 days), number survived/total number [1, 8]: 3/5
Average longevity (mean survival period in 50 days) [1, 9]: 45.2
Longevity ratio (mean survival period to that of reference mouse multiplied by 100) [1, 9]: 370
Toxicity, number dead/total number [1, 9]: 0/5
Viability (after 50 days), number survived/total number [1, 9]: 4/5
Average longevity (mean survival period in 50 days) [1, 10]: 34.2
Longevity ratio (mean survival period to that of reference mouse multiplied by 100) [1, 10]: 280
Toxicity, number dead/total number [1, 10]: 2/5
Viability (after 50 days), number survived/total number [1, 10]: 3/5
Average longevity (mean survival period in 50 days) [1, 11]: 30.4
Longevity ratio (mean survival period to that of reference mouse multiplied by 100) [1, 11]: 249
Toxicity, number dead/total number [1, 11]: 4/5
Viability (after 50 days), number survived/total number [1, 11]: 1/5
Average longevity (mean survival period in 50 days) [1, 12]: 12.4
Longevity ratio (mean survival period to that of reference mouse multiplied by 100) [1, 12]: 102
Toxicity, number dead/total number [1, 12]: 5/5
Viability (after 50 days), number survived/total number [1, 12]: 0/5
Chemotherapeutic index [1]: 21.7
Chemotherapeutic index (LD50/ED50) [1]: 12.1
LD50 (50 % lethal dose) [1]: 9.4 mg/kg/day
ED50 (50 % effective dose) [1]: 0.78 mg/kg/day
Antimicrobial activity to Mycobacterium smegmatis 607 ([2]; Referential Example, standard copper-free bleomycin A2 free base 1,000 U/mg): 605 U/mg
Antimicrobial potency [2, 3]: 592 Unit/mg

3-(3-N-n-Butylaminopropylamino)propylaminobleomycin
Chemotherapeutic index [1]: 59.2
Antimicrobial potency [2, 3]: 5840 Unit/mg

2-N,N-Dimethylaminoethylaminophleomycin
Antimicrobial potency [2, 4]: 718 unit/mg

3-Piperidinopropylaminophleomycin
Antimicrobial potency [2, 4]: 1006 unit/mg

3-N-(1-Phenylethyl)aminopropylaminobleomycin
Chemotherapeutic index [1]: 59.2
Antimicrobial potency [2, 3]: 5320 Unit/mg

3-(3-N-n-Butylaminopropylamino)propylaminophleomycin
Antimicrobial potency [2, 4]: 4672 unit/mg

3-N-(3-Hydroxypropyl)aminopropylaminobleomycin
Chemotherapeutic index [1]: 29.6
Antimicrobial potency [2, 3]: 1021 Unit/mg

3-Pyrrolidinopropylaminophleomycin
Antimicrobial potency [2, 4]: 853 unit/mg

3-(3-N-Benzylaminopropylamino)propylaminophleomycin
Antimicrobial potency [2, 4]: 6710 unit/mg

3-(3-N-Benzylaminopropylamino)propylaminobleomycin
Chemotherapeutic index [1]: 24.0
Antimicrobial potency [2, 3]: 6000 Unit/mg

2-(Imidazol-4-yl)ethylaminophleomycin
Antimicrobial potency [2, 4]: 678 unit/mg

3-(3-Piperidinopropylamino)propylaminophleomycin
Antimicrobial potency [2, 4]: 2864 unit/mg

Cc1c(N)nc(C(CC(N)=O)NCC(N)C(N)=O)nc1C(=O)NC(C(=O)NC(C)C(O)C(C)C(=O)NC(C(=O)NCCc1nc(-c2nc(C(=O)NCCC[S+](C)C)cs2)cs1)C(C)O)C(OC1OC(CO)C(O)C(O)C1OC1OC(CO)C(O)C(OC(N)=O)C1O)c1cnc[nH]1 (stereo not shown) [3-S,S-Dimethylmercaptopropylaminobleomycin]
Chemotherapeutic index [1]: 12.0
Antimicrobial potency [2, 3]: 920 Unit/mg

3-(3-Piperidinopropylamino)propylaminobleomycin
Chemotherapeutic index [1]: 16.8
Antimicrobial potency [2, 3]: 3580 Unit/mg

3-(N,N-Dimethylaminopropylamino)propylaminophleomycin
Antimicrobial potency [2, 4]: 1336 unit/mg

3-(3-Pyrrolidinopropylamino)propylaminophleomycin
Antimicrobial potency [2, 4]: 2051 unit/mg

3-S,S-Dimethylmercaptopropylaminophleomycin
Average longevity (mean survival period in 50 days) [1, 5]: 18.0
Longevity ratio (mean survival period to that of reference mouse multiplied by 100) [1, 5]: 123
Toxicity, number dead/total number [1, 5]: 0/5
Viability (after 50 days), number survived/total number [1, 5]: 0/5
Average longevity (mean survival period in 50 days) [1, 6]: 21.0
Longevity ratio (mean survival period to that of reference mouse multiplied by 100) [1, 6]: 144
Toxicity, number dead/total number [1, 6]: 0/5
Viability (after 50 days), number survived/total number [1, 6]: 0/5
Average longevity (mean survival period in 50 days) [1, 7]: 29.0
Longevity ratio (mean survival period to that of reference mouse multiplied by 100) [1, 7]: 199
Toxicity, number dead/total number [1, 7]: 0/5
Viability (after 50 days), number survived/total number [1, 7]: 2/5
Average longevity (mean survival period in 50 days) [1, 8]: 36.8
Longevity ratio (mean survival period to that of reference mouse multiplied by 100) [1, 8]: 252
Toxicity, number dead/total number [1, 8]: 0/5
Viability (after 50 days), number survived/total number [1, 8]: 3/5
Average longevity (mean survival period in 50 days) [1, 9]: 44.0
Longevity ratio (mean survival period to that of reference mouse multiplied by 100) [1, 9]: 301
Toxicity, number dead/total number [1, 9]: 0/5
Viability (after 50 days), number survived/total number [1, 9]: 4/5
Average longevity (mean survival period in 50 days) [1, 10]: 33.8
Longevity ratio (mean survival period to that of reference mouse multiplied by 100) [1, 10]: 232
Toxicity, number dead/total number [1, 10]: 3/5
Viability (after 50 days), number survived/total number [1, 10]: 1/5
Average longevity (mean survival period in 50 days) [1, 11]: 13.0
Longevity ratio (mean survival period to that of reference mouse multiplied by 100) [1, 11]: 89
Toxicity, number dead/total number [1, 11]: 5/5
Viability (after 50 days), number survived/total number [1, 11]: 0/5
Average longevity (mean survival period in 50 days) [1, 12]: 8.6
Longevity ratio (mean survival period to that of reference mouse multiplied by 100) [1, 12]: 59
Toxicity, number dead/total number [1, 12]: 5/5
Viability (after 50 days), number survived/total number [1, 12]: 0/5
Chemotherapeutic index (LD50/ED50) [1]: 8.5
Prolongation effect on the survival period of ICR-SLC mouse inoculated with Ehrlich ascites carcinoma ([1]; as shown in Tables 2 and 3): distinct prolongation effect
LD50 (50 % lethal dose) [1]: 6.6 mg/kg/day
ED50 (50 % effective dose) [1]: 0.78 mg/kg/day
Antimicrobial potency [2, 4]: 865 unit/mg

3-[3-N-(1-Phenylethyl)aminopropylamino]propylaminobleomycin
Chemotherapeutic index [1]: 18.1
Antimicrobial potency [2, 3]: 9470 Unit/mg

2-N,N-Diethylaminoethylaminophleomycin
Antimicrobial potency [2, 4]: 882 unit/mg

3-Amidinopropylaminophleomycin
Antimicrobial potency [2, 4]: 2500 unit/mg

3-N-(1-Phenylethyl)aminopropylaminophleomycin
Antimicrobial potency [2, 4]: 4030 unit/mg

3-N-Propenylaminopropylaminophleomycin
Antimicrobial potency [2, 4]: 2100 unit/mg

3-N-tert-Butylaminopropylaminophleomycin
Antimicrobial potency [2, 4]: 3520 unit/mg

3-N-Cyclohexylaminopropylaminophleomycin
Antimicrobial potency [2, 4]: 4284 unit/mg

3-N,N-Dimethylaminopropylaminophleomycin
Antimicrobial potency [2, 4]: 648 unit/mg

3-(N,N,N-Trimethylamino)propylaminophleomycin chloride
Antimicrobial potency [2, 4]: 506 unit/mg

3-N-n-Butylaminopropylaminophleomycin
Antimicrobial potency [2, 4]: 3535 unit/mg

3-N,N-Diethylaminopropylaminophleomycin
Antimicrobial potency [2, 4]: 829 unit/mg

3-Guanidinopropylaminophleomycin
Antimicrobial potency [2, 4]: 2300 unit/mg

3-N-(3,3-Dichloropropyl)aminopropylaminophleomycin
Antimicrobial potency [2, 4]: 3120 unit/mg
